Experimental data as given in US9174998B2, “(6S,9aS)-N-benzyl-6-[(4-hydroxyphenyl)methyl]-4,7-dioxo-8-({6-[3-(piperazin-1-yl)azetidin-1-yl]pyridin-2-yl}methyl)-2-(prop-2-en-1-yl)-octahydro-1H-pyrazino[2,1-c][1,2,4]triazine-1-carboxamide compound” (Eisai R&D Management Co., Ltd., priority 2013, dated 2015).
In brackets after ≈: the same amount, converted by molar mass.

What was measured:
[1] = tested on: human chronic myologenous leukemia cell strain K562; experiment: Anti-tumor effect in human K562 subcutaneous transplantation model; settings: day 28
[2] = Evaluation of solubility (DMSO stock into PBS, HPLC-UV); type: physicochemical; settings: aqueous buffer, kinetic from dmso stock; Dulbecco's phosphate-buffered saline pH 7, room temperature, about 15 minutes shaking; values greater than 200 μM regarded as 200 μM; read-out: Test Example 3 solubility
Procedure, shortened: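 Kinetic solubility: 20 mM DMSO stock spiked into Dulbecco's PBS pH 7, shaken about 15 min at room temperature, then suction-filtered; filtrate quantified by HPLC-UV against a 200 μM DMSO standard. Values above 200 μM are capped at 200 μM.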

[3] = PAMPA test (parallel artificial membrane permeability assay); type: in vitro ADME; settings: phosphate buffer pH 6.8, about 200 μM, about 5 hours, room temperature, read-out: Test Example 4 membrane permeation coefficient Pe
Procedure, shortened: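 Compounds at about 200 μM in pH 6.8 phosphate buffer with about 1% DMSO on the donor side. Transport across a lipid-precoated PVDF membrane with shaking at 350 rpm, room temperature, about 5 h. Donor and acceptor concentrations measured by HPLC-UV; Pe (cm/s) calculated from these.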

Wnt signal = experiment: Detection of Wnt signal (TOPglow luciferase reporter, LiCl-stimulated); type: cell-based; settings: Homo sapiens; HEK293 clone carrying pNeo-TOP reporter; LiCl stimulation; luciferase luminescence; read-out: Test Example 1 IC50 (concentration required for inhibiting the Wnt signal activity by 50%)
Procedure, shortened: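 Stable HEK293 clone carrying a TOPglow TCF/Wnt-responsive luciferase reporter, stimulated with 80 mM LiCl in the diluted sample medium alongside compound; luminescence read with Bright-Glo 6 h after addition. IC50 derived from activity scaled between LiCl-only wells (100%) and wells lacking both LiCl and sample (0%).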

[4] = Evaluation of metabolic stability; type: in vitro ADME, human; settings: 0.2 mg/mL HLM, 0.1 μM test substance, 15 minutes at 37° C., with vs without NADPH production
Procedure, shortened: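 Pooled human liver microsomes (0.2 mg/mL) in 0.1 M potassium phosphate pH 7.4 with EDTA, MgCl2 and an NADPH-generating system (NADP+, glucose-6-phosphate, G6PDH). Residual ratio by LC-MS/MS, comparing with versus without NADPH generation.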

[5] = Evaluation of solubility (Examples 25 and 26), visual judgment; type: physicochemical; settings: aqueous buffer, thermodynamic from solid; Dulbecco's phosphate-buffered saline pH 7; about 10 mg sample, test solution added in 0.1 mL portions until dissolved
Experimental: About 10 mg of a sample was weighed accurately and placed in a 10-mL polypropylene test tube, a test solution shown below was added thereto by portions (0.1 mL) until the sample was dissolved completely. When the test solution was added, the mixed solution was stirred intermittently in a range from about 30 seconds to 3 minutes using a Vortex mixer every time the test solution was added. The solubility (mM) of the sample was calculated from the added amount of the test solution required until the presence of any solid material was not observed by visual judgment.
Test solution: GIBCO (registered trade name) (Dulbecco's phosphate-buffered saline having a pH value of 7, Invitrogen Corporation)

solubility [2]	Papp [3]	IC50 (Wnt signal)	Test Example 2 residual ratio of the test substance [4]	SMILES	the number of individuals in which a tumor was not observed by visual judgment/total number of mice ([1]; Dasatinib 5 mg/kg alone, oral qd, 5 days on/2 days off, two cycles)	the number of individuals in which a tumor was not observed by visual judgment/total number of mice ([1]; Compound of Example 1 35 mg/kg oral bid for 5 days combined with Dasatinib 5 mg/kg qd, * P 0.05 or less vs Dasatinib alone (Fisher's test))	the number of individuals in which a tumor was not observed by visual judgment/total number of mice ([1]; Compound of Example 1 50 mg/kg oral bid for 5 days combined with Dasatinib 5 mg/kg qd, *** P 0.01 or less vs Dasatinib alone (Fisher's test))	the number of individuals in which a tumor was not observed by visual judgment/total number of mice ([1]; Compound of Example 1 75 mg/kg oral bid for 5 days combined with Dasatinib 5 mg/kg qd, *** P 0.01 or less vs Dasatinib alone (Fisher's test))	solubility [5]
–	–	–	–	Cc1nc(Nc2ncc(C(=O)Nc3c(C)cccc3Cl)s2)cc(N2CCN(CCO)CC2)n1 [Dasatinib, reference compound]	0/9	–	–	–	–
197 µM (≈ 143 µg/mL)	2.01 ×10⁻⁶ cm/s	60 nM	47%	C=CCN1CC(=O)N2[C@@H](Cc3ccc(O)cc3F)C(=O)N(Cc3cccc(N4CC(N5CCN(CC)CC5)C4)n3)C[C@@H]2N1C(=O)NCc1ccccc1 [Example 1, (6S,9aS)-N-Benzyl-8-((6-(3-(4-ethylpiperazin-1-yl)azetidin-1-yl)pyridin-2-yl)methyl)-6-((2-fluoro-4-hydroxyphenyl)methyl)-4,7-dioxo-2-(prop-2-en-1-yl)-octahydro-1H-pyrazino[2,1-c][1,2,4]triazine-1-carboxamide]	–	6/10*	9/10***	10/10***	–
199 µM (≈ 141 µg/mL)	1.04 ×10⁻⁶ cm/s	400 nM	57%	C=CCN1CC(=O)N2[C@@H](Cc3ccc(O)cc3)C(=O)N(Cc3cccc(N4CC(N5CCN(C)[C@@H](C)C5)C4)n3)C[C@@H]2N1C(=O)NCc1ccccc1 [Example 27, (6S,9aS)-N-Benzyl-8-((6-(3-((3S)-3,4-dimethylpiperazin-1-yl)azetidin-1-yl)pyridin-2-yl)methyl)-6-((4-hydroxyphenyl)methyl)-4,7-dioxo-2-(prop-2-en-1-yl)-octahydro-1H-pyrazino[2,1-c][1,2,4]triazine-1-carboxamide]	–	–	–	–	–
198 µM (≈ 140 µg/mL)	0.95 ×10⁻⁶ cm/s	380 nM	55%	C=CCN1CC(=O)N2[C@@H](Cc3ccc(O)cc3)C(=O)N(Cc3cccc(N4CC(N5CCN(C)[C@H](C)C5)C4)n3)C[C@@H]2N1C(=O)NCc1ccccc1 [Example 28, (6S,9aS)-N-Benzyl-8-((6-(3-((3R)-3,4-dimethylpiperazin-1-yl)azetidin-1-yl)pyridin-2-yl)methyl)-6-((4-hydroxyphenyl)methyl)-4,7-dioxo-2-(prop-2-en-1-yl)-octahydro-1H-pyrazino[2,1-c][1,2,4]triazine-1-carboxamide]	–	–	–	–	–
193 µM (≈ 143 µg/mL)	0.62 ×10⁻⁶ cm/s	240 nM	54%	C=CCN1CC(=O)N2[C@@H](Cc3ccc(O)cc3)C(=O)N(Cc3ccc(F)c(N4CC(N5CCC(N(C)C)CC5)C4)n3)C[C@@H]2N1C(=O)NCc1ccccc1 [Reference Example 1, (6S,9aS)-N-Benzyl-8-((6-(3-(4-(dimethylamino)piperidin-1-yl)azetidin-1-yl)-5-fluoropyridin-2-yl)methyl)-6-((4-hydroxyphenyl)methyl)-4,7-dioxo-2-(prop-2-en-1-yl)-octahydro-1H-pyrazino[2,1-c][1,2,4]triazine-1-carboxamide]	–	–	–	–	–
195 µM (≈ 142 µg/mL)	0.65 ×10⁻⁶ cm/s	330 nM	51%	C=CCN1CC(=O)N2[C@@H](Cc3ccc(O)cc3F)C(=O)N(Cc3cccc(N4CC(N5CC[C@@H](N(C)C)C5)C4)n3)C[C@@H]2N1C(=O)NCc1ccccc1 [Reference Example 2, (6S,9aS)-N-Benzyl-8-((6-(3-((3R)-3-(dimethylamino)pyrrolidin-1-yl)azetidin-1-yl)pyridin-2-yl)methyl)-6-((2-fluoro-4-hydroxyphenyl)methyl)-4,7-dioxo-2-(prop-2-en-1-yl)-octahydro-1H-pyrazino[2,1-c][1,2,4]triazine-1-carboxamide]	–	–	–	–	–
199 µM (≈ 151 µg/mL)	0.55 ×10⁻⁶ cm/s	110 nM	50%	C=CCN1CC(=O)N2[C@@H](Cc3ccc(O)cc3F)C(=O)N(Cc3ccc(F)c(N4CC(N5CCC(N(C)C)CC5)C4)n3)C[C@@H]2N1C(=O)NCc1ccccc1 [Reference Example 3, (6S,9aS)-N-Benzyl-8-((6-(3-(4-(dimethylamino)piperidin-1-yl)azetidin-1-yl)-5-fluoropyridin-2-yl)methyl)-6-((2-fluoro-4-hydroxyphenyl)methyl)-4,7-dioxo-2-(prop-2-en-1-yl)-octahydro-1H-pyrazino[2,1-c][1,2,4]triazine-1-carboxamide]	–	–	–	–	–
198 µM (≈ 152 µg/mL)	0.68 ×10⁻⁶ cm/s	150 nM	34%	C=CCN1CC(=O)N2[C@@H](Cc3ccc(O)cc3F)C(=O)N(Cc3ccc(F)c(N4CC(N5C[C@@H]6C[C@H]5CN6C(C)C)C4)n3)C[C@@H]2N1C(=O)NCc1ccccc1 [Reference Example 4, (6S,9aS)-N-Benzyl-6-((2-fluoro-4-hydroxyphenyl)methyl)-8-((5-fluoro-6-(3-((1S,4S)-5-(propan-2-yl)-2,5-diazabicyclo[2.2.1]heptan-2-yl)azetidin-1-yl)pyridin-2-yl)methyl)-4,7-dioxo-2-(prop-2-en-1-yl)-octahydro-1H-pyrazino[2,1-c][1,2,4]triazine-1-carboxamide]	–	–	–	–	–
181 µM (≈ 137 µg/mL)	2.25 ×10⁻⁶ cm/s	130 nM	22%	C=CCN1CC(=O)N2[C@@H](Cc3ccc(O)cc3F)C(=O)N(Cc3cccc(N4CC(N(C)CCN5CCOCC5)C4)n3)C[C@@H]2N1C(=O)NCc1ccccc1 [Reference Example 5, (6S,9aS)-N-Benzyl-6-((2-fluoro-4-hydroxyphenyl)methyl)-8-((6-(3-(methyl(2-(morpholin-4-yl)ethyl)amino)azetidin-1-yl)pyridin-2-yl)methyl)-4,7-dioxo-2-(prop-2-en-1-yl)-octahydro-1H-pyrazino[2,1-c][1,2,4]triazine-1-carboxamide]	–	–	–	–	–
190 µM (≈ 139 µg/mL)	1.7 ×10⁻⁶ cm/s	190 nM	28%	C=CCN1CC(=O)N2[C@@H](Cc3ccc(O)cc3F)C(=O)N(Cc3ccc(F)c(N4CC(N(C)CCN(C)C)C4)n3)C[C@@H]2N1C(=O)NCc1ccccc1 [Reference Example 6, (6S,9aS)-N-Benzyl-8-((6-(3-((2-(dimethylamino)ethyl)(methyl)amino)azetidin-1-yl)-5-fluoropyridin-2-yl)methyl)-6-((2-fluoro-4-hydroxyphenyl)methyl)-4,7-dioxo-2-(prop-2-en-1-yl)-octahydro-1H-pyrazino[2,1-c][1,2,4]triazine-1-carboxamide]	–	–	–	–	–

SMILES	solubility [2]	Papp [3]	IC50 (Wnt signal)	Test Example 2 residual ratio of the test substance [4]	the number of individuals in which a tumor was not observed by visual judgment/total number of mice ([1]; Dasatinib 5 mg/kg alone, oral qd, 5 days on/2 days off, two cycles)	the number of individuals in which a tumor was not observed by visual judgment/total number of mice ([1]; Compound of Example 1 35 mg/kg oral bid for 5 days combined with Dasatinib 5 mg/kg qd, * P 0.05 or less vs Dasatinib alone (Fisher's test))	the number of individuals in which a tumor was not observed by visual judgment/total number of mice ([1]; Compound of Example 1 50 mg/kg oral bid for 5 days combined with Dasatinib 5 mg/kg qd, *** P 0.01 or less vs Dasatinib alone (Fisher's test))	the number of individuals in which a tumor was not observed by visual judgment/total number of mice ([1]; Compound of Example 1 75 mg/kg oral bid for 5 days combined with Dasatinib 5 mg/kg qd, *** P 0.01 or less vs Dasatinib alone (Fisher's test))	solubility [5]
C=CCN1CC(=O)N2[C@@H](Cc3ccc(OP(=O)(O)O)cc3F)C(=O)N(Cc3cccc(N4CC(N5CCN(CC)CC5)C4)n3)C[C@@H]2N1C(=O)NCc1ccccc1 [Example 25, 4-(((6S,9aS)-1-(Benzylcarbamoyl)-8-((6-(3-(4-ethylpiperazin-1-yl)azetidin-1-yl)pyridin-2-yl)methyl)-4,7-dioxo-2-(prop-2-en-1-yl)-octahydro-1H-pyrazino[2,1-c][1,2,4]triazin-6-yl)methyl)-3-fluorophenyl dihydrogen phosphate]	–	–	180 nM	–	–	–	–	–	≥ 124000 µM
C=CCN1CC(=O)N2C(CN(Cc3cccc(N4CC(N5CCN(CC)CC5)C4)n3)C(=O)[C@@H]2Cc2ccc(OP(=O)(O)O)cc2)N1C(=O)NCc1ccccc1 (stereo partly drawn) [Example 26, 4-(((6S,9aS)-1-(Benzylcarbamoyl)-8-((6-(3-(4-ethylpiperazin-1-yl)azetidin-1-yl)pyridin-2-yl)methyl-4,7-dioxo-2-(prop-2-en-1-yl)-octahydro-1H-pyrazino[2,1-c][1,2,4]triazin-6-yl)methyl)phenyldihydrogen phosphate]	–	–	1190 nM	–	–	–	–	–	42000 to 62000 µM
